Test results from patent US20240279241A1, “PYRIDO[4,3-D]PYRIMIDINE COMPOUNDS CAPABLE OF INHIBITING KRAS MUTANT PROTEINS” (Redx Pharma PLC, priority 2021, published 2024).

How the values were obtained:
Type in all cases: biochemical
KRAS G12D = biological target: T1, KRAS G12D (Homo sapiens, UniProt P01116, G12D); experiment: HTRF nucleotide exchange assay (NEA), KRAS G12D; conditions: recombinant human KRAS G12D aa1-188, 2 nM; lowest class = % inhibition at 10 μM
T1 construct: Recombinant human RAS protein (2 nM)
T1 sequence (P01116 1-188 isoform P01116-2 G12D): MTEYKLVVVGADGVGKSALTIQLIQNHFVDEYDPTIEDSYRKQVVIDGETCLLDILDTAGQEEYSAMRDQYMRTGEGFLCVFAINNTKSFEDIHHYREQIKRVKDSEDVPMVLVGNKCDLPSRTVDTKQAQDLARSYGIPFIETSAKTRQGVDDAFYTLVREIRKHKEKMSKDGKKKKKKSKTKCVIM
In short: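 Compound binding to KRAS G12D was measured by HTRF nucleotide exchange. Recombinant human KRAS G12D (aa1-188, N-terminal 6×His-tag, 2 nM) and 2 nM Europium anti-6×His antibody were combined with compound in 5 uL assay buffer in 384-well plates for 60 minutes at room temperature, then 5 ul of 200 nM EDA-GTP-DY647P1 was added for 30 minutes before time-resolved fluorescence reading.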

KRAS WT = biological target: T2, KRAS WT (Homo sapiens, UniProt P01116); experiment: HTRF nucleotide exchange assay (NEA), KRAS WT
T2 construct: Recombinant human RAS protein (2 nM); aa1-188 KRAS WT
T2 sequence (P01116 1-188 isoform P01116-2): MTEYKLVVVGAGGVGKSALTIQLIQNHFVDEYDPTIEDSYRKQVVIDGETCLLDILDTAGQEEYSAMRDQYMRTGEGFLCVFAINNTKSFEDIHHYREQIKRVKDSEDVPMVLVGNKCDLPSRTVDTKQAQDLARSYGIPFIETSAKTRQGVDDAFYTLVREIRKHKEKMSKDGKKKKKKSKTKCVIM
In short: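 His-tagged KRAS aa1-188 (2 nM WT or G13D; 4 nM G12C or G12S) was preincubated with compound and 2 nM Eu-anti-His antibody in HEPES pH7.3 buffer with 100 mM KF for 60 min at room temperature. A 200 nM EDA-GTP-DY647P1 solution was added, and TR-FRET was read after 30 min. IC50 came from a four-parameter logistic fit.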

KRAS G12C = biological target: T3, KRAS G12C (Homo sapiens, UniProt P01116, G12C); experiment: HTRF nucleotide exchange assay (NEA), KRAS G12C
T3 construct: 4 nM KRAS; aa1-188 containing the G12V, G12C, G12A or G12S amino acid substitution
T3 sequence (P01116 1-188 isoform P01116-2 G12C): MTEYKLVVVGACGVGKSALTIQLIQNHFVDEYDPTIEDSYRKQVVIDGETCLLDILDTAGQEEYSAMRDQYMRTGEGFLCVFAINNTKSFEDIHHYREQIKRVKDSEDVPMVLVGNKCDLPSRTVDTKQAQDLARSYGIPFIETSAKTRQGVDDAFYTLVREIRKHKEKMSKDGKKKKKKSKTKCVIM
Protocol: (§1) The capacity of compounds to bind KRAS G12D, other KRAS mutants and wildtype RAS isoforms was quantified using a HTRF nucleotide exchange assay. Recombinant human RAS protein (2 nM; aa1-188 KRAS WT, HRAS WT, NRAS WT, or KRAS containing the containing the G12D, G13D or Q61H amino acid substitutions, or 4 nM KRAS; aa1-188 containing the G12V, G12C, G12A or G12S amino acid substitution, an N-terminal 6×His-tag and leader sequence), and 2 nM Europium-labeled anti-6×His antibody were mixed in assay buffer (10 mM HEPES pH7.3, 150 mM NaCl, 5 mM MgCl2, 0.05% BSA, 0.0025% NP-40 and 100 mM KF) with various concentrations of compound in a 384-well plate and a volume of 5 uL. After a 60-minute incubation at room temperature, 5 ul of 200 nM EDA-GTP-DY647P1 (diluted in assay buffer) was added to the plate. Following 30-minute incubation at room temperature, time-resolved fluorescence was measured on a PerkinElmer Envision plate reader. DMSO (0.3%) and unlabeled […] (1 μM) or equivalent tool compound were used to generate the Max and Min assay signals, respectively. Data was analysed using a four-parameter logistic model to calculate IC50 values, with at least two independent replicates were performed for each compound.

KRAS G12V = biological target: T4, KRAS G12V (Homo sapiens, UniProt P01116, G12V); experiment: HTRF nucleotide exchange assay (NEA), KRAS G12V
T4 construct: 4 nM KRAS; aa1-188 containing the G12V, G12C, G12A or G12S amino acid substitution
T4 sequence (P01116 1-188 isoform P01116-2 G12V): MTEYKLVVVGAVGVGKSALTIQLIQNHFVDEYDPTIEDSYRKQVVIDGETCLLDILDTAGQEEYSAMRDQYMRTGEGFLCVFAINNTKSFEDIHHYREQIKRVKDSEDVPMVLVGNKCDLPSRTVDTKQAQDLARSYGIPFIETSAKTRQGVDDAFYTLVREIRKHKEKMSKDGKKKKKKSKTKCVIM
Protocol: as §1

KRAS G12S = biological target: T5, KRAS G12S (Homo sapiens, UniProt P01116, G12S); experiment: HTRF nucleotide exchange assay (NEA), KRAS G12S
T5 construct: 4 nM KRAS; aa1-188 containing the G12V, G12C, G12A or G12S amino acid substitution
T5 sequence (P01116 1-188 isoform P01116-2 G12S): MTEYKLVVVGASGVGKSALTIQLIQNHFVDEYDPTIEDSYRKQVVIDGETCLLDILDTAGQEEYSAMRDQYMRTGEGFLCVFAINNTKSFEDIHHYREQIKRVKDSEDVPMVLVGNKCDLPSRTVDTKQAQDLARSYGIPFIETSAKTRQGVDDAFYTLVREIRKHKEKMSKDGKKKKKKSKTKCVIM
Protocol: as §1

KRAS G12A = biological target: T6, KRAS G12A (Homo sapiens, UniProt P01116, G12A); experiment: HTRF nucleotide exchange assay (NEA), KRAS G12A
T6 construct: 4 nM KRAS; aa1-188 containing the G12V, G12C, G12A or G12S amino acid substitution
T6 sequence (P01116 1-188 isoform P01116-2 G12A): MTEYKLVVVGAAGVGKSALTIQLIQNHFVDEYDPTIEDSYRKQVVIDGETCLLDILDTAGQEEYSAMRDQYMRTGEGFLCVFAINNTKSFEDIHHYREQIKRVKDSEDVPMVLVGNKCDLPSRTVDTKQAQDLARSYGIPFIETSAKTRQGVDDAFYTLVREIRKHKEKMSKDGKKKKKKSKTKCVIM
Protocol: as §1

KRAS G13D = biological target: T7, KRAS G13D (Homo sapiens, UniProt P01116, G13D); experiment: HTRF nucleotide exchange assay (NEA), KRAS G13D; conditions: recombinant human KRAS G13D aa1-188, 2 nM; lowest class = % inhibition at 10 μM
T7 construct: Recombinant human RAS protein (2 nM); aa1-188 KRAS WT
T7 sequence (P01116 1-188 isoform P01116-2 G13D): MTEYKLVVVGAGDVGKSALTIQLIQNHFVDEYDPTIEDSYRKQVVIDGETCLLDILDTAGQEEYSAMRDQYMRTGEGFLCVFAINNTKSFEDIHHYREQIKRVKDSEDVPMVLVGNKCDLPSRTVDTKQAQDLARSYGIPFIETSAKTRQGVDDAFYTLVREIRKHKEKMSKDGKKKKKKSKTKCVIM
Protocol: as §1

Row | Structure (SMILES) | IC50 (KRAS G12D) [nM] | IC50 (KRAS WT) [nM] | IC50 (KRAS G12C) [nM] | IC50 (KRAS G12V) [nM] | IC50 (KRAS G12S) [nM] | IC50 (KRAS G12A) [nM] | IC50 (KRAS G13D) [µM]
1 | C#Cc1c(F)ccc2cc(O)cc(-c3ncc4c(N5CCCNC(=O)C5)nc(OC[C@@]56CCCN5C[C@H](F)C6)nc4c3F)c12 (relative stereo) [Example 88, 4-[7-(8-ethynyl-7-fluoro-3-hydroxy-1-naphthyl)-8-fluoro-2-[[trans-2-fluoro-1,2,3,5,6,7-hexahydropyrrolizin-8-yl]methoxy]pyrido [4,3-d]pyrimidin-4-yl]-1,4-diazepan-2-one] | ≤ 10 | ≤ 10 | ≤ 10 | ≤ 10 | ≤ 10 | ≤ 10 | 
2 | CC1CN(c2nc(OCC34CCCN3CCC4)nc3c(F)c(-c4cc(O)cc5ccccc45)ncc23)CCCO1 (stereo not drawn) [Example 16, 4-[8-fluoro-2-(1,2,3,5,6,7-hexahydropyrrolizin-8-ylmethoxy)-4-(2-methyl-1,4-oxazepan-4-yl)pyrido[4,3-d]pyrimidin-7-yl]naphthalen-2-ol] | 10 to 100 | 10 to 100 | 10 to 100 | 10 to 100 | 100 to 10000 | 10 to 100 | 
3 | Oc1cc(-c2ncc3c(N4CCCCCC4)nc(OCC45CCCN4CCC5)nc3c2F)c2ccccc2c1 [Example 17, 4-[4-(azepan-1-yl)-8-fluoro-2-(1,2,3,5,6,7-hexahydropyrrolizin-8-ylmethoxy)pyrido[4,3-d]pyrimidin-7-yl]naphthalen-2-ol] | 10 to 100 | 10 to 100 | 10 to 100 | 10 to 100 | 10 to 100 | 10 to 100 | 
4 | O=S1(=O)CCN(c2nc(OCC34CCCN3CCC4)nc3c(F)c(-c4cc(O)cc5ccccc45)ncc23)CC1 [Example 22, 4-[4-(1,1-dioxo-1,4-thiazinan-4-yl)-8-fluoro-2-(1,2,3,5,6,7-hexahydropyrrolizin-8-ylmethoxy)pyrido[4,3-d]pyrimidin-7-yl]naphthalen-2-ol] | 100 to 10000 | 100 to 10000 |  |  | 100 to 10000 | 100 to 10000 | > 10
5 | COCC(C)CNc1nc(OCC23CCCN2CCC3)nc2c(F)c(-c3cc(O)cc4ccccc34)ncc12 (stereo not drawn) [Example 31, 4-[8-fluoro-2-(1,2,3,5,6,7-hexahydropyrrolizin-8-ylmethoxy)-4-[(3-methoxy-2-methyl-propyl)amino]pyrido [4,3-d]pyrimidin-7-yl]naphthalen-2-ol] | 100 to 10000 | 100 to 10000 |  |  | 100 to 10000 | 100 to 10000 | > 10
6 | Oc1cc(-c2ncc3c(N4CCC(O)CC4)nc(OCC45CCCN4CCC5)nc3c2F)c2ccccc2c1 [Example 41, 1-[8-fluoro-2-(1,2,3,5,6,7-hexahydropyrrolizin-8-ylmethoxy)-7-(3-hydroxy-1-naphthyl)pyrido[4,3-d]pyrimidin-4-yl]piperidin-4-ol] | 10 to 100 | 10 to 100 | 10 to 100 | 10 to 100 | 100 to 10000 | 10 to 100 | 
7 | COCC1(CNc2nc(OCC34CCCN3CCC4)nc3c(F)c(-c4cc(O)cc5ccccc45)ncc23)COC1 [Example 45, 4-[8-fluoro-2-(1,2,3,5,6,7-hexahydropyrrolizin-8-ylmethoxy)-4-[[3-(methoxymethyl)oxetan-3-yl]methylamino]pyrido [4,3-d]pyrimidin-7-yl]naphthalen-2-ol] | 100 to 10000 | 100 to 10000 | 100 to 10000 | 100 to 10000 | 100 to 10000 |  | 
8 | CS(=O)(=O)CCCNc1nc(OCC23CCCN2CCC3)nc2c(F)c(-c3cc(O)cc4ccccc34)ncc12 [Example 46, 4-[8-fluoro-2-(1,2,3,5,6,7-hexahydropyrrolizin-8-ylmethoxy)-4-(3-methylsulfonylpropylamino)pyrido[4,3-d]pyrimidin-7-yl]naphthalen-2-ol] | 100 to 10000 | 100 to 10000 |  |  | 100 to 10000 |  | 
9 | Oc1cc(-c2ncc3c(N4CC5CCC(C5)C4)nc(OCC45CCCN4CCC5)nc3c2F)c2ccccc2c1 [Example 47, 4-[4-(3-azabicyclo[3.2.1]octan-3-yl)-8-fluoro-2-(1,2,3,5,6,7-hexahydropyrrolizin-8-ylmethoxy)pyrido [4,3-d]pyrimidin-7-yl]naphthalen-2-ol] | 100 to 10000 | 10 to 100 | 10 to 100 | 10 to 100 | 100 to 10000 | 10 to 100 | 
10 | Oc1cc(-c2ncc3c(N4CCCC5(COC5)C4)nc(OCC45CCCN4CCC5)nc3c2F)c2ccccc2c1 [Example 52, 4-[8-fluoro-2-(1,2,3,5,6,7-hexahydropyrrolizin-8-ylmethoxy)-4-(2-oxa-8-azaspiro[3.5]nonan-8-yl)pyrido[4,3-d]pyrimidin-7-yl]naphthalen-2-ol] | 10 to 100 | 10 to 100 | 10 to 100 | 10 to 100 | 100 to 10000 | 10 to 100 | 
11 | O=S1(=O)CCN(c2nc(OCC34CCCN3CCC4)nc3c(F)c(-c4cc(O)cc5ccccc45)ncc23)CCN1 [Example 59, 4-[4-(1,1-dioxo-1,2,5-thiadiazepan-5-yl)-8-fluoro-2-(1,2,3,5,6,7-hexahydropyrrolizin-8-ylmethoxy)pyrido [4,3-d]pyrimidin-7-yl]naphthalen-2-ol] | 100 to 10000 | 100 to 10000 | 100 to 10000 | 100 to 10000 | 100 to 10000 | 100 to 10000 | 
12 | N#CC1CCN(c2nc(OCC34CCCN3CCC4)nc3c(F)c(-c4cc(O)cc5ccccc45)ncc23)CC1 [Example 65, 1-[8-fluoro-2-(1,2,3,5,6,7-hexahydropyrrolizin-8-ylmethoxy)-7-(3-hydroxy-1-naphthyl)pyrido[4,3-d]pyrimidin-4-yl]piperidine-4-carbonitrile] | 100 to 10000 | 100 to 10000 | 10 to 100 | 10 to 100 | 100 to 10000 | 10 to 100 | 
13 | Oc1cc(-c2ncc3c(N4CCCC(O)CC4)nc(OCC45CCCN4CCC5)nc3c2F)c2ccccc2c1 (stereo not drawn) [Example 70, 1-[8-fluoro-2-(1,2,3,5,6,7-hexahydropyrrolizin-8-ylmethoxy)-7-(3-hydroxy-1-naphthyl)pyrido[4,3-d]pyrimidin-4-yl]azepan-4-ol] | ≤ 10 | 10 to 100 | 10 to 100 | 10 to 100 | 100 to 10000 | 10 to 100 | 
14 | O=C1NCc2ccc(Nc3nc(OCC45CCCN4CCC5)nc4c(F)c(-c5cc(O)cc6ccccc56)ncc34)cc21 [Example 82, 6-[[8-fluoro-2-(1,2,3,5,6,7-hexahydropyrrolizin-8-ylmethoxy)-7-(3-hydroxy-1-naphthyl)pyrido[4,3-d]pyrimidin-4-yl]amino]isoindolin-1-one] | 100 to 10000 | 100 to 10000 | 100 to 10000 | 10 to 100 |  |  | 
15 | [O-][S+]1CCCN(c2nc(OCC34CCCN3CCC4)nc3c(F)c(-c4cc(O)cc5ccccc45)ncc23)CC1 (stereo not drawn) [Example 90, 4-[8-fluoro-2-(1,2,3,5,6,7-hexahydropyrrolizin-8-ylmethoxy)-4-(1-oxo-1,4-thiazepan-4-yl)pyrido[4,3-d]pyrimidin-7-yl]naphthalen-2-ol] | ≤ 10 | 10 to 100 | 10 to 100 | 10 to 100 | 100 to 10000 | 10 to 100 | 
16 | Nc1cc2ccccc2c(-c2ncc3c(N4CCCOCC4)nc(OCC45CCCN4CCC5)nc3c2F)n1 [Example 91, 1-[8-fluoro-2-(1,2,3,5,6,7-hexahydropyrrolizin-8-ylmethoxy)-4-(1,4-oxazepan-4-yl)pyrido[4,3-d]pyrimidin-7-yl]isoquinolin-3-amine] | 100 to 10000 | 100 to 10000 | 100 to 10000 | 100 to 10000 |  |  | 
17 | CN(C)CC1(COc2nc(N3CCCOCC3)c3cnc(-c4cc(O)cc5ccccc45)c(F)c3n2)CC1 [Example 96, 4-[2-[[1-[(dimethylamino)methyl]cyclopropyl]methoxy]-8-fluoro-4-(1,4-oxazepan-4-yl)pyrido[4,3-d]pyrimidin-7-yl]naphthalen-2-ol] | 10 to 100 | 10 to 100 | 10 to 100 | 10 to 100 |  |  | 
